Assay results as given in ChEMBL document CHEMBL1833963, “Synthesis of new 3,20-bispolyaminosteroid squalamine analogues and evaluation of their antimicrobial activities” (2011).
In brackets after ≈: the same amount, converted by molar mass. Activity calls are given as the source filed them. No cut-off for these calls is given here.

Assays:
[1] = tested on: Staphylococcus aureus; assay: Antibacterial activity against Staphylococcus aureus after 24 hrs by microbroth dilution method; format: functional
[2] = tested on: Staphylococcus aureus; assay: Antibacterial activity against oxacillin-sensitive Staphylococcus aureus after 24 hrs by microbroth dilution method; format: functional
[3] = tested on: Staphylococcus aureus; assay: Antibacterial activity against oxacillin-resistant Staphylococcus aureus after 24 hrs by microbroth dilution method; format: functional
[4] = tested on: Escherichia coli; assay: Antibacterial activity against Escherichia coli after 24 hrs by microbroth dilution method; format: functional
[5] = tested on: Pseudomonas aeruginosa; assay: Antibacterial activity against Pseudomonas aeruginosa after 24 hrs by microbroth dilution method; format: functional
[6] = tested on: Pseudomonas aeruginosa; assay: Antibacterial activity against colistin-sensitive Pseudomonas aeruginosa after 24 hrs by microbroth dilution method; format: functional
[7] = tested on: Inquilinus limosus; assay: Antibacterial activity against colistin-resistant Inquilinus limosus after 24 hrs by microbroth dilution method; format: functional
[8] = tested on: Burkholderia cepacia; assay: Antibacterial activity against Colistin resistant Burkholderia cepacia after 24 hrs by microbroth dilution method; format: functional
[9] = tested on: Escherichia coli; assay: Antibacterial activity against Escherichia coli ATCC 25922 after 24 hrs by microbroth dilution method in absence of Mg2+; format: functional
[10] = tested on: Staphylococcus aureus; assay: Antibacterial activity against Staphylococcus aureus ATCC 25923 after 24 hrs by microbroth dilution method in absence of Mg2+; format: functional
[11] = tested on: Escherichia coli; assay: Antibacterial activity against Escherichia coli ATCC 25922 after 24 hrs by microbroth dilution method in presence of Mg2+; format: functional
[12] = tested on: Staphylococcus aureus; assay: Antibacterial activity against Staphylococcus aureus ATCC 25923 after 24 hrs by microbroth dilution method in presence of Mg2+; format: functional
[13] = tested on: Escherichia coli; assay: Ratio of MIC for Escherichia coli ATCC 25922 in presence of Mg2+ to MIC for Escherichia coli ATCC 25922 in absence of Mg2+; format: functional
[14] = tested on: Escherichia coli; assay: Antibacterial activity against Escherichia coli assessed as induction of ATP efflux at 4 times MIC after 5 mins by luminometry analysis; format: functional
[15] = tested on: Staphylococcus aureus; assay: Antibacterial activity against Staphylococcus aureus assessed as induction of ATP efflux at 4 times MIC after 5 mins by luminometry; format: functional
[16] = tested on: Escherichia coli; assay: Antibacterial activity against Escherichia coli assessed as induction of bacterial membrane depolarization at MIC measured up to 21 mins by fluorescence assay; format: functional, organism-based
[17] = tested on: Staphylococcus aureus; assay: Antibacterial activity against Staphylococcus aureus assessed as induction of bacterial membrane depolarization at MIC measured up to 21 mins by fluorescence assay; format: functional, organism-based
[18] = tested on: Staphylococcus aureus; assay: Antibacterial activity against Staphylococcus aureus assessed as induction of bacterial membrane depolarization at MIC after 3 mins by fluorescence assay; format: functional
[19] = tested on: Staphylococcus aureus; assay: Bactericidal activity against Staphylococcus aureus DSM 799 assessed as log decrease in bacterial count at MIC after 1 hr by time-kill assay; format: functional
[20] = tested on: Pseudomonas aeruginosa; assay: Bactericidal activity against Pseudomonas aeruginosa DSM 939 assessed as complete killing at MIC after 2 hrs by time-kill assay; format: functional, organism-based
[21] = tested on: Staphylococcus aureus; assay: Antibacterial activity against Staphylococcus aureus assessed as induction of bacterial membrane depolarization at MIC measured up to 21 mins by fluorescence assay relative to squalamine; format: functional
[22] = tested on: Escherichia coli; assay: Antibacterial activity against Escherichia coli assessed as induction of bacterial membrane depolarization at MIC measured up to 21 mins by fluorescence assay relative to squalamine; format: functional
[23] = tested on: Staphylococcus aureus; assay: Bactericidal activity against Staphylococcus aureus DSM 799 assessed as log decrease in bacterial count at MIC after 2 hrs by time-kill assay; format: functional

| Molecule | MIC [1] [µg/mL] | MIC [2] [µg/mL] | MIC [3] [µg/mL] | MIC [4] [µg/mL] | MIC [5] [µg/mL] | MIC [6] [µg/mL] | MIC [7] [µg/mL] | MIC [8] [µg/mL] | also measured |
| --- | --- | --- | --- | --- | --- | --- | --- | --- | --- |
| CC(C)[C@@H](CC[C@@H](C)[C@H]1CC[C@H]2[C@@H]3[C@H](O)C[C@H]4C[C@@H](NCCCNCCCCN)CC[C@]4(C)[C@H]3CC[C@]12C)OS(=O)(=O)O [SQUALAMINE] | 1.25 (≈ 1.99 µM) | 0.3 (≈ 0.478 µM) | 1.25 (≈ 1.99 µM) | 5 (≈ 7.96 µM) | 2.5 (≈ 3.98 µM) | 5 (≈ 7.96 µM) | 5 (≈ 7.96 µM) | > 40 | MIC ([9]; ATCC 25922, 24 h): 2.5 µg/mL (≈ 3.98 µM); MIC ([10]; ATCC 25923, 24 h): 1.25 µg/mL (≈ 1.99 µM); MIC ([11]; ATCC 25922, 24 h): 32 µg/mL; MIC ([12]; ATCC 25923, 24 h): 1.25 µg/mL; Ratio [13]: 4; Activity [14]: <35%; Activity [15]: 100%; Activity [16]: inactive; Activity [17]: Active; Activity [18]: 80% |
| COLISTIMETHATE SODIUM | – | – | – | 2.5 | 5 | 5 | > 100 | > 40 | MIC [9]: 0.5 µg/mL; MIC [10]: > 128 µg/mL; MIC [11]: 16 µg/mL; MIC [12]: > 128 µg/mL; Ratio [13]: 4; Activity [14]: 4%; Activity [15]: inactive |
| C[C@@H](N)[C@H]1CC[C@H]2[C@@H]3CCC4=C[C@@H](N)CC[C@]4(C)[C@H]3CC[C@]12C | 40 (≈ 126 µM) | > 40 | 40 (≈ 126 µM) | > 40 | > 40 | > 40 | > 40 | > 40 | – |
| C[C@@H](NCCCCCCN)[C@H]1CC[C@H]2[C@@H]3CCC4=C[C@@H](NCCCCCCN)CC[C@]4(C)[C@H]3CC[C@]12C | 2.5 (≈ 4.86 µM) | 5 (≈ 9.71 µM) | 5 (≈ 9.71 µM) | 5 (≈ 9.71 µM) | 10 (≈ 19.4 µM) | 20 (≈ 38.8 µM) | 20 (≈ 38.8 µM) | > 40 | – |
| C[C@@H](NCCCCCN)[C@H]1CC[C@H]2[C@@H]3CCC4=C[C@@H](NCCCCCN)CC[C@]4(C)[C@H]3CC[C@]12C | 5 (≈ 10.3 µM) | 5 (≈ 10.3 µM) | 10 (≈ 20.5 µM) | 10 (≈ 20.5 µM) | 10 (≈ 20.5 µM) | 20 (≈ 41.1 µM) | 40 (≈ 82.2 µM) | > 40 | – |
| C[C@@H](NCCCCCCCCCCCCN)[C@H]1CC[C@H]2[C@@H]3CCC4=C[C@@H](NCCCCCCCCCCCCN)CC[C@]4(C)[C@H]3CC[C@]12C | 10 (≈ 14.6 µM) | 5 (≈ 7.32 µM) | 10 (≈ 14.6 µM) | 20 (≈ 29.3 µM) | 40 (≈ 58.5 µM) | 40 (≈ 58.5 µM) | 20 (≈ 29.3 µM) | > 40 | – |
| C[C@@H](NCCCCCCCCN)[C@H]1CC[C@H]2[C@@H]3CCC4=C[C@@H](NCCCCCCCCN)CC[C@]4(C)[C@H]3CC[C@]12C | 2.5 (≈ 4.38 µM) | 2.5 (≈ 4.38 µM) | 5 (≈ 8.76 µM) | 5 (≈ 8.76 µM) | 2.5 (≈ 4.38 µM) | 2.5 (≈ 4.38 µM) | 10 (≈ 17.5 µM) | > 40 | MIC ([9]; ATCC 25922, 24 h): 2.5 µg/mL (≈ 4.38 µM); MIC ([10]; ATCC 25923, 24 h): 2.5 µg/mL (≈ 4.38 µM); MIC ([11]; ATCC 25922, 24 h): 10 µg/mL; MIC ([12]; ATCC 25923, 24 h): 5 µg/mL; Ratio [13]: 4; FC [19]: 5; Activity [20]: Active; fold change (FC) [21]: 4; Activity [14]: <35%; fold change (FC) [22]: 4 |
| C[C@@H](NCCCCN)[C@H]1CC[C@H]2[C@@H]3CCC4=C[C@@H](NCCCCN)CC[C@]4(C)[C@H]3CC[C@]12C | 5 (≈ 10.9 µM) | 10 (≈ 21.8 µM) | 6 (≈ 13.1 µM) | 10 (≈ 21.8 µM) | 20 (≈ 43.6 µM) | 20 (≈ 43.6 µM) | 40 (≈ 87.2 µM) | > 40 | – |
| C[C@@H](NCCCN)[C@H]1CC[C@H]2[C@@H]3CCC4=C[C@@H](NCCCN)CC[C@]4(C)[C@H]3CC[C@]12C | 10 (≈ 23.2 µM) | 10 (≈ 23.2 µM) | 5 (≈ 11.6 µM) | 10 (≈ 23.2 µM) | 10 (≈ 23.2 µM) | 20 (≈ 46.4 µM) | 20 (≈ 46.4 µM) | > 40 | – |
| C[C@@H](NCCCCCCCCCCN)[C@H]1CC[C@H]2[C@@H]3CCC4=C[C@@H](NCCCCCCCCCCN)CC[C@]4(C)[C@H]3CC[C@]12C | 10 (≈ 15.9 µM) | 5 (≈ 7.97 µM) | 5 (≈ 7.97 µM) | 20 (≈ 31.9 µM) | 40 (≈ 63.8 µM) | 40 (≈ 63.8 µM) | 20 (≈ 31.9 µM) | > 40 | – |
| NC[C@H]1O[C@H](O[C@H]2[C@H](O)[C@@H](O[C@H]3O[C@H](CO)[C@@H](O)[C@H](N)[C@H]3O)[C@H](N)C[C@@H]2N)[C@H](N)C[C@@H]1O [TOBRAMYCIN] | 1.25 (≈ 2.67 µM) | 1.25 (≈ 2.67 µM) | – | 2.5 (≈ 5.35 µM) | 5 (≈ 10.7 µM) | 5 (≈ 10.7 µM) | > 40 | > 40 | MIC ([9]; ATCC 25922, 24 h): 2 µg/mL (≈ 4.28 µM); MIC ([10]; ATCC 25923, 24 h): 1 µg/mL (≈ 2.14 µM); MIC ([11]; ATCC 25922, 24 h): 1 µg/mL; MIC ([12]; ATCC 25923, 24 h): 2 µg/mL; FC [23]: 5 |
| C[C@@H](NCCN)[C@H]1CC[C@H]2[C@@H]3CCC4=C[C@@H](NCCN)CC[C@]4(C)[C@H]3CC[C@]12C | 20 (≈ 49.7 µM) | 20 (≈ 49.7 µM) | 10 (≈ 24.8 µM) | 20 (≈ 49.7 µM) | 20 (≈ 49.7 µM) | 20 (≈ 49.7 µM) | > 40 | > 40 | – |
| CN[C@@H]1C=C2CC[C@H]3[C@@H]4CC[C@H]([C@@H](C)NC)[C@@]4(C)CC[C@@H]3[C@@]2(C)CC1 | 40 (≈ 116 µM) | 20 (≈ 58 µM) | 20 (≈ 58 µM) | > 40 | > 40 | > 40 | > 40 | > 40 | – |
| C[C@@H](NCCCCCCCCCN)[C@H]1CC[C@H]2[C@@H]3CCC4=C[C@@H](NCCCCCCCCCN)CC[C@]4(C)[C@H]3CC[C@]12C | 5 (≈ 8.35 µM) | 5 (≈ 8.35 µM) | 5 (≈ 8.35 µM) | 20 (≈ 33.4 µM) | 40 (≈ 66.8 µM) | 40 (≈ 66.8 µM) | 20 (≈ 33.4 µM) | > 40 | – |
| C[C@@H](NCCCCCCCN)[C@H]1CC[C@H]2[C@@H]3CCC4=C[C@@H](NCCCCCCCN)CC[C@]4(C)[C@H]3CC[C@]12C | 2.5 (≈ 4.6 µM) | 2.5 (≈ 4.6 µM) | 5 (≈ 9.21 µM) | 5 (≈ 9.21 µM) | 10 (≈ 18.4 µM) | 10 (≈ 18.4 µM) | 20 (≈ 36.8 µM) | > 40 | – |
